Test results from ChEMBL document CHEMBL1201862, “PubChem BioAssay data set” (2004).
Calls of active or inactive are those of the source.

Legend:
Type in all cases: functional
[1] = biological target: High affinity nerve growth factor receptor (Homo sapiens, UniProt P04629);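 also: NTRK1 tested as one member of a kinome-wide profiling panel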
[2] = biological target: Death-associated protein kinase 3 (Homo sapiens, UniProt O43293);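 also: measured as one member of a kinome-wide profiling panel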
[3] = biological target: Receptor-type tyrosine-protein kinase FLT3 (Homo sapiens, UniProt P36888);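 also: FLT3 was tested as one member of a kinome-wide kinase panel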
[4] = biological target: Vascular endothelial growth factor receptor 2 (Homo sapiens, UniProt P35968)
[5] = biological target: Mast/stem cell growth factor receptor Kit (Homo sapiens, UniProt P10721);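 also: KIT entry within a kinase panel assay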
[6] = biological target: Cyclin-dependent kinase 1 (Homo sapiens, UniProt P06493);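 also: Kinome-wide panel profiling, with the target listed as panel member CDC2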
[7] = biological target: Tyrosine-protein kinase Fyn (Homo sapiens, UniProt P06241)
[8] = biological target: Serine/threonine-protein kinase PAK 4 (Homo sapiens, UniProt O96013);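 also: value obtained within a kinome profiling panel in which PAK4 was one of the panel members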
[9] = biological target: BDNF/NT-3 growth factors receptor (Homo sapiens, UniProt Q16620);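 also: NTRK2 measured as one member of a broad kinome-wide kinase profiling panel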
[10] = biological target: Serine/threonine-protein kinase Chk2 (Homo sapiens, UniProt O96017);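 also: CHEK2 entry within a kinome-wide screening panel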
Serine/threonine-protein kinase Chk2, sequence (O96017 whole entry): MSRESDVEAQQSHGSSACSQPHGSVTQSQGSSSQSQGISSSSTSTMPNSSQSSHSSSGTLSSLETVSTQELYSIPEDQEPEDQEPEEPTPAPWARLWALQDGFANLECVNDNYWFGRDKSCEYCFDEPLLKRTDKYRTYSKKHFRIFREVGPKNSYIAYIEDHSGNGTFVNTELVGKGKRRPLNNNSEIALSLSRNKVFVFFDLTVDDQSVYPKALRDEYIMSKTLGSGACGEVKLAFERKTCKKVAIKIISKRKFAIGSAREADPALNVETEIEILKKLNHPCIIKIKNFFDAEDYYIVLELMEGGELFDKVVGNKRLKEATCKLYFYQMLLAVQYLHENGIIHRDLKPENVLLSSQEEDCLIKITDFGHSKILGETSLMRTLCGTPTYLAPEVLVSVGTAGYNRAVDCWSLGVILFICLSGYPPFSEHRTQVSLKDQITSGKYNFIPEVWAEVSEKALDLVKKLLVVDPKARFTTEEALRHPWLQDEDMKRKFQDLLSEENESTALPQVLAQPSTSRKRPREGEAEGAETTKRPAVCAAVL

[11] = biological target: Calcium/calmodulin-dependent protein kinase type 1 (Homo sapiens, UniProt Q14012)
[12] = biological target: MAP kinase-activated protein kinase 3 (Homo sapiens, UniProt Q16644);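 also: value comes from a kinome-wide profiling panel in which MAPKAPK3 is one of the panel members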
MAP kinase-activated protein kinase 3, sequence (Q16644 whole entry): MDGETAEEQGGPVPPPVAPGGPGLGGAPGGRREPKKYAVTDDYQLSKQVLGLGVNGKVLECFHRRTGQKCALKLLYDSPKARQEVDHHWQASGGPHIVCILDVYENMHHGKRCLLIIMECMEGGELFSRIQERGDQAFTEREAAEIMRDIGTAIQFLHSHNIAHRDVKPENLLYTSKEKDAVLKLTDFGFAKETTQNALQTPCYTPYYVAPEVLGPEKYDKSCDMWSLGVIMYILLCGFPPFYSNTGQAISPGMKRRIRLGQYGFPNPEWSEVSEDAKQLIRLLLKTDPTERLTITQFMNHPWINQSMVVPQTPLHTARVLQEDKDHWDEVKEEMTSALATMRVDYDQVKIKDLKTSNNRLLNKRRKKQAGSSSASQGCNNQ

[13] = biological target: Serine/threonine-protein kinase 3 (Homo sapiens, UniProt Q13188);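 also: measured as one member of a kinome-wide kinase panel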
[14] = biological target: 5'-AMP-activated protein kinase catalytic subunit alpha-1 (Homo sapiens, UniProt Q13131)
[15] = biological target: T1, Tyrosine-protein kinase ITK/TSK (Homo sapiens, UniProt Q08881);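 also: affinity for ITK measured as one member of a broad kinase panel profiling binding across the kinome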
T1 sequence (Q08881 whole entry): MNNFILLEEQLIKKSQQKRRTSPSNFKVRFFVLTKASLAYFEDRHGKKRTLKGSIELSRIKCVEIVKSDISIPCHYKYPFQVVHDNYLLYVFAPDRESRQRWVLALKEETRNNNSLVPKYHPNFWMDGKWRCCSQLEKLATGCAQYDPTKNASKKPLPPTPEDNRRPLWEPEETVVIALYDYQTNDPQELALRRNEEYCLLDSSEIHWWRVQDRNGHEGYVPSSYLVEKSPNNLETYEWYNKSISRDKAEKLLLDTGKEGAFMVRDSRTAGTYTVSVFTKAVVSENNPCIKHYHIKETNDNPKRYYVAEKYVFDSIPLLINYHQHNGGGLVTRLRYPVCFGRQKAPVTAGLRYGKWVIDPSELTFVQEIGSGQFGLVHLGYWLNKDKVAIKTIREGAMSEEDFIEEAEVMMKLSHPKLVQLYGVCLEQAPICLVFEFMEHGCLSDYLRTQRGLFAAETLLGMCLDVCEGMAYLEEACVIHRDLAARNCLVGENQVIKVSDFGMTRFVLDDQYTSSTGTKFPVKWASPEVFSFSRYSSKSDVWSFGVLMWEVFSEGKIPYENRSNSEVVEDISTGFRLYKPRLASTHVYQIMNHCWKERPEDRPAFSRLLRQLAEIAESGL

Aurora kinase B = Aurora kinase B (Homo sapiens, UniProt Q96GD4)
[16] = biological target: Non-receptor tyrosine-protein kinase TYK2 (Homo sapiens, UniProt P29597)
Non-receptor tyrosine-protein kinase TYK2, sequence (P29597 whole entry): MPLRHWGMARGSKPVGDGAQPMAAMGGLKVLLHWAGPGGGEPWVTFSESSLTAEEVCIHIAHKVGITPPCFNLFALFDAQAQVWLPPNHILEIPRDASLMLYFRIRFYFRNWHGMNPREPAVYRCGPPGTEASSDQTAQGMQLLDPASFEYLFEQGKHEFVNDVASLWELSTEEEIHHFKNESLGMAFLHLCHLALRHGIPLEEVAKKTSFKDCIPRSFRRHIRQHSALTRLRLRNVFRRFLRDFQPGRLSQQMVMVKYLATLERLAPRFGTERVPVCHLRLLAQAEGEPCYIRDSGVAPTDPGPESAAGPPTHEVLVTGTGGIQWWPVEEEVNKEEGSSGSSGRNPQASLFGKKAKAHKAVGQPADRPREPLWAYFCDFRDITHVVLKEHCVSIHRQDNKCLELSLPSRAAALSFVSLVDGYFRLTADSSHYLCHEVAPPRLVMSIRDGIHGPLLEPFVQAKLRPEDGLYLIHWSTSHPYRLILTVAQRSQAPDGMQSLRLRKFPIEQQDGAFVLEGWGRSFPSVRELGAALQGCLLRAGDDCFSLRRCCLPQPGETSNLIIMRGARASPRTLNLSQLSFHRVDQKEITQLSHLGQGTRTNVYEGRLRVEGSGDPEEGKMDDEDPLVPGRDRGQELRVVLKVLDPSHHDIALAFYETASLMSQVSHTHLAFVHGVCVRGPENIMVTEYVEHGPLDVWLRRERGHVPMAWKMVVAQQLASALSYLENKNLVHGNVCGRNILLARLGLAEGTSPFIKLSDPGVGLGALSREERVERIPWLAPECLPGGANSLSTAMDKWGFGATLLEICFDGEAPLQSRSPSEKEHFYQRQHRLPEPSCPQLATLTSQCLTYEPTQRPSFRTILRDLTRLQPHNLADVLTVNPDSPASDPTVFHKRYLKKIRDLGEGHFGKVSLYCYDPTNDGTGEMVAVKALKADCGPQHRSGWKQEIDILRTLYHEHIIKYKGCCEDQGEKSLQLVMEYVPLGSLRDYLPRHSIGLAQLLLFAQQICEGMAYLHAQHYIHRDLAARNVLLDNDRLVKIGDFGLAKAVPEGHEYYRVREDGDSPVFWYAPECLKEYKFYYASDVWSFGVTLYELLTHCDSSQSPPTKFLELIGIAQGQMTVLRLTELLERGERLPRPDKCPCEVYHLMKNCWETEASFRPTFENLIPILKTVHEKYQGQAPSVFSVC

[17] = biological target: 3-phosphoinositide-dependent protein kinase 1 (Homo sapiens, UniProt O15530);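 also: value comes from the Navigating the Kinome panel, PDPK1 member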
[18] = biological target: Mitogen-activated protein kinase 1 (Homo sapiens, UniProt P28482)
[19] = biological target: Ribosomal protein S6 kinase beta-1 (Homo sapiens, UniProt P23443);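 also: measured as one member of a kinome-wide profiling panel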
[20] = biological target: Serine/threonine-protein kinase PAK 1 (Homo sapiens, UniProt Q13153)
[21] = biological target: MAP/microtubule affinity-regulating kinase 3 (Homo sapiens, UniProt P27448);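 also: MARK3 affinity measured as one member of a kinome panel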
[22] = biological target: Mitogen-activated protein kinase 8 (Homo sapiens, UniProt P45983);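 also: value comes from one member of a kinome-wide kinase profiling panel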
Mitogen-activated protein kinase 8, sequence (P45983 whole entry): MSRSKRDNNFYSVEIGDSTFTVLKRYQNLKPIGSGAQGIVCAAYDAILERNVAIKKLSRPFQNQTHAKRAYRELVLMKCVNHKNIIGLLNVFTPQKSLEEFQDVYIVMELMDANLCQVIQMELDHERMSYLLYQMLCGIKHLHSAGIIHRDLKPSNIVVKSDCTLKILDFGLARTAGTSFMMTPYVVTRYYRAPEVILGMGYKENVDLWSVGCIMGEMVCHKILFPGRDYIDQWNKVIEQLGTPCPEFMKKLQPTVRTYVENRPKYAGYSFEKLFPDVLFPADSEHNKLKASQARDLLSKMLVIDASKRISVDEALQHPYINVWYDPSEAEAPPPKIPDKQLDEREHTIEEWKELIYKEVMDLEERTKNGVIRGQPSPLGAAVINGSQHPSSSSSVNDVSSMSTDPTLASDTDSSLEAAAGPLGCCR

Aurora kinase A = biological target: T2, Aurora kinase A (Homo sapiens, UniProt O14965);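 also: value from the Navigating the Kinome kinase panel profiling, panel entry STK6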
T2 sequence (O14965 whole entry): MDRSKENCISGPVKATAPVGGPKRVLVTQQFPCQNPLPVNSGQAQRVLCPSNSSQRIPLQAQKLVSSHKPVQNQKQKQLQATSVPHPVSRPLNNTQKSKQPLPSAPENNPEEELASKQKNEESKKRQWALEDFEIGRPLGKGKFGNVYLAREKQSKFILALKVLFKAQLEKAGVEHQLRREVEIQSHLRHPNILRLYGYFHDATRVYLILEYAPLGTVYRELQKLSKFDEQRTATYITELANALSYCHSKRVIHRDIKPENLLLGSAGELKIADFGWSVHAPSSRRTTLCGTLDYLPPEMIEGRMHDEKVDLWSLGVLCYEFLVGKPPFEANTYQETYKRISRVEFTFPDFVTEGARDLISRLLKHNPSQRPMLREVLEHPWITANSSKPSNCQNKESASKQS

[23] = biological target: Mitogen-activated protein kinase 12 (Homo sapiens, UniProt P53778);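 also: measured as one member of a kinome-wide kinase profiling panel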
Mitogen-activated protein kinase 12, sequence (P53778 whole entry): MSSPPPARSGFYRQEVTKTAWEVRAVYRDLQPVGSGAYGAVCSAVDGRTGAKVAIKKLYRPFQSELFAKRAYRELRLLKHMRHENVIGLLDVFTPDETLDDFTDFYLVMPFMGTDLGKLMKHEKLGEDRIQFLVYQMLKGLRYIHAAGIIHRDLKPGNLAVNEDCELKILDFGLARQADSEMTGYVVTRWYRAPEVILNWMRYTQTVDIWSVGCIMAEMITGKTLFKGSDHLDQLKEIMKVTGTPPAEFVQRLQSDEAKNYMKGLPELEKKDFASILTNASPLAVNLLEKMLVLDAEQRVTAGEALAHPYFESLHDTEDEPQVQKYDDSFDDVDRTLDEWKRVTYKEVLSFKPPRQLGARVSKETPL

Insulin receptor = Insulin receptor (Homo sapiens, UniProt P06213);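 also: insulin receptor kinase tested as one member of a kinome-wide kinase panel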
[24] = biological target: Macrophage colony-stimulating factor 1 receptor (Homo sapiens, UniProt P07333);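 also: value comes from the Navigating the Kinome screening panel, CSF1R member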
[25] = biological target: Fibroblast growth factor receptor 1 (Homo sapiens, UniProt P11362)
[26] = biological target: Proto-oncogene tyrosine-protein kinase Src (Homo sapiens, UniProt P12931);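 also: SRC entry within a kinome-wide kinase profiling panel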
[27] = biological target: Rho-associated protein kinase 1 (Homo sapiens, UniProt Q13464);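 also: measured within a broad kinome-wide panel profiling many kinases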
Rho-associated protein kinase 1, sequence (Q13464 whole entry): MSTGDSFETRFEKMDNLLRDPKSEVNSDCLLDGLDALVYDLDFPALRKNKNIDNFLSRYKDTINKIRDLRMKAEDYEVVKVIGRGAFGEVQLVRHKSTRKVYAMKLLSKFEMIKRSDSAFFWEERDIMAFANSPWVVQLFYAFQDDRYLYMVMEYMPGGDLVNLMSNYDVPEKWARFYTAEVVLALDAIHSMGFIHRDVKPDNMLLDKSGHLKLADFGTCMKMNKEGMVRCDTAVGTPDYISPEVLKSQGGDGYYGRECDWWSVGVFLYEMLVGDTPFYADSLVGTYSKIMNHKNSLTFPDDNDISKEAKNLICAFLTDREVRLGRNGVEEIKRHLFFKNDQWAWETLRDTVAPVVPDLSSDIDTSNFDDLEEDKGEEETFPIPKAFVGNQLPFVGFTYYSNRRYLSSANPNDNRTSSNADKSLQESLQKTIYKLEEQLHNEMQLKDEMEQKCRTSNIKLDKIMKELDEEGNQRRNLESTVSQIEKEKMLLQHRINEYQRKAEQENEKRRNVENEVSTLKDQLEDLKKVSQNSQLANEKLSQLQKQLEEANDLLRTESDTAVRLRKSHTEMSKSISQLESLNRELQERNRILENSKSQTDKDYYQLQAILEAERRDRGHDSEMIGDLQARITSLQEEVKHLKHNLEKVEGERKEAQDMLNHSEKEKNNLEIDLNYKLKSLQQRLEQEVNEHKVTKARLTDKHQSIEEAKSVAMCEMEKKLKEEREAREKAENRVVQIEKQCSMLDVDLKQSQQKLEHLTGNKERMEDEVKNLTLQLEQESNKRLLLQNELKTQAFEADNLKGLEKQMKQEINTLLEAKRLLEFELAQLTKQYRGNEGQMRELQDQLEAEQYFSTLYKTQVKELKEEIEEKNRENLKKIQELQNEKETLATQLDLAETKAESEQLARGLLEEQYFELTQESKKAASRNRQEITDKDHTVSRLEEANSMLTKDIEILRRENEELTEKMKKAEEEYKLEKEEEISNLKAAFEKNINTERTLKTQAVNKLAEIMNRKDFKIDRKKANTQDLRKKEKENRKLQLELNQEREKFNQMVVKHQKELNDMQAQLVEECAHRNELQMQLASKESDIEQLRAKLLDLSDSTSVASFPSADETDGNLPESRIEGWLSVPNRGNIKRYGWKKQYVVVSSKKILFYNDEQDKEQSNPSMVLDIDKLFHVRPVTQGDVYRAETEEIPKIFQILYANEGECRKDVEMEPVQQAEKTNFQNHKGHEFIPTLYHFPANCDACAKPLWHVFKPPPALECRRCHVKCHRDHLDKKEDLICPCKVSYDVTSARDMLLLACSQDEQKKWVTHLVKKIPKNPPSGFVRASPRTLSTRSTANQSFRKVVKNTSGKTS

[28] = biological target: Serine/threonine-protein kinase D2 (Homo sapiens, UniProt Q9BZL6);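 also: measured against PRKD2 as one member of a kinome-wide kinase profiling panel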
[29] = biological target: Serine/threonine-protein kinase PLK4 (Homo sapiens, UniProt O00444);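 also: PLK4 measured as one member of a kinome-wide kinase profiling panel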
[30] = biological target: Serine/threonine-protein kinase pim-2 (Homo sapiens, UniProt Q9P1W9);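 also: value comes from a broad kinase panel profiling study in which PIM2 was one of the panel members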

High affinity nerve growth factor receptor, sequence (P04629 whole entry): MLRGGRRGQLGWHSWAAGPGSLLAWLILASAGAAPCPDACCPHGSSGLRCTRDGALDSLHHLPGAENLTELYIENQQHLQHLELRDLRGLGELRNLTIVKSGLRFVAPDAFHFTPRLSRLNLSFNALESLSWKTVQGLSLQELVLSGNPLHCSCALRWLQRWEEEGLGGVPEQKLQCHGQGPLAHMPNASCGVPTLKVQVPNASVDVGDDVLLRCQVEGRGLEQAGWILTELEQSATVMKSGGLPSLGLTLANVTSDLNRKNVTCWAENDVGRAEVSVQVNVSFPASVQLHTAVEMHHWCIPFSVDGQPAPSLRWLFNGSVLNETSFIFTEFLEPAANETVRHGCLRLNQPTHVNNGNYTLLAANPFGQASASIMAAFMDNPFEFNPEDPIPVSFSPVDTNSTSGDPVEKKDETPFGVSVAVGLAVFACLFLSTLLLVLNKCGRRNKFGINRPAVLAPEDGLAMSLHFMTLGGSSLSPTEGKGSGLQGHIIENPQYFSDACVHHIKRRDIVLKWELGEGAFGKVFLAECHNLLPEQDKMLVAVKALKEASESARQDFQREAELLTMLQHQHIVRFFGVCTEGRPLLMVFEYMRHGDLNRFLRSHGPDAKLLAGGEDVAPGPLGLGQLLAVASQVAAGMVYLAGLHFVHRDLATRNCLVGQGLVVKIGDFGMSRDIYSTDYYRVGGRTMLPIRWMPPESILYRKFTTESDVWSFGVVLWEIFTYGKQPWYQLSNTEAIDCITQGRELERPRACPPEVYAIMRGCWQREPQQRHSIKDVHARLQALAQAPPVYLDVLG

SMILES	Ki [1]	Ki [2]	Ki [3]	Ki [4]	Ki [5]	Ki [6]	Ki [7]	Ki [8]	Ki [9]	Ki [10]	Ki [11]	Ki [12]	Ki [13]	Ki [14]	Ki [15]	Ki (Aurora kinase B)	Ki [16]	Ki [17]	Ki [18]	Ki [19]	further results
Cc1c(C=O)c(O)n2c(nc3ccccc32)c1C#N	> 2510 nM (inactive)	1000 nM (active)	631 nM (active)	> 7940 nM (inactive)	> 1260 nM (inactive)	> 7940 nM (inactive)	398 nM (active)	> 5010 nM (inactive)	> 5010 nM (inactive)	> 10000 nM (inactive)	> 7940 nM (inactive)	> 10000 nM (inactive)	5010 nM (active)	> 10000 nM (inactive)	398 nM (active)	6310 nM (active)	> 2000 nM (inactive)	> 3980 nM (inactive)	> 7940 nM (inactive)	1260 nM (active)	Ki [20]: > 10000 nM (inactive); Ki [21]: > 6310 nM (inactive); Ki [22]: > 3160 nM (inactive); Ki (Aurora kinase A): 794 nM (active); Ki [23]: > 6310 nM (inactive); Ki (Insulin receptor): > 5010 nM (inactive); Ki [24]: > 2510 nM (inactive); Ki [25]: > 5010 nM (inactive); Ki [26]: 1580 nM (active); Ki [27]: > 10000 nM (inactive); Ki [28]: > 10000 nM (inactive); Ki [29]: 794 nM (active); Ki [30]: > 1580 nM (inactive)
Cc1n[nH]c2cnc(-c3cncc(OCC(N)Cc4cccc(C(F)(F)F)c4)c3)cc12 (stereo unspecified)	> 2510 nM (inactive)	3.98 nM (active)	1580 nM (active)	> 7940 nM (inactive)	> 1260 nM (inactive)	31.6 nM (active)	> 794 nM (inactive)	398 nM (active)	> 5010 nM (inactive)	79.4 nM (active)	501 nM (active)	> 10000 nM (inactive)	79.4 nM (active)	12.6 nM (active)	> 1580 nM (inactive)	3160 nM (active)	> 2000 nM (inactive)	200 nM (active)	631 nM (active)	12.6 nM (active)	Ki [20]: 2000 nM (active); Ki [21]: 63.1 nM (active); Ki [22]: > 3160 nM (inactive); Ki (Aurora kinase A): > 1580 nM (inactive); Ki [23]: 1000 nM (active); Ki (Insulin receptor): > 5010 nM (inactive); Ki [24]: > 2510 nM (inactive); Ki [25]: > 5010 nM (inactive); Ki [26]: > 2000 nM (inactive); Ki [27]: 7.94 nM (active); Ki [28]: 251 nM (active); Ki [29]: 2510 nM (active); Ki [30]: 1.26 nM (active)
